Patent US10544190B2, “Peptide that supresses binding of beta-amyloid and rage” (ENSOL BIOSCIENCES INC., priority 2016, dated 2020)
Where a SMILES comes first, the peptide text is derived from it. Where no end group is shown, it is not given here.

Columns and labels:
beta-amyloid 1-42 [1] = test: Inhibition of entry of beta-amyloid 1-42 into brain II (ELISA of brain); type: in vivo; settings: ICR mice, peptide 25 mg/kg intraperitoneally; for Beta-amyloid 1-42 concentration in brain: 20 min before i.v. 25 μM beta-amyloid 1-42, control group 60.8 ± 14.8, normal group 0.0 ± 11.9
Protocol: Based on the test results of Example 1, the following test was conducted in order to evaluate whether Example 2 and Comparative Examples 1 and 2, in addition to Example 1, are effective at inhibiting the entry of beta-amyloid 1-42 into the brain.
Specifically, 1 mg ofbeta-amyloid 1-42 (American Peptide Company, Sunnyvale, Calif., USA) was added with 2 ml of hexafluoroisopropanol (HFIP), allowed to stand at room temperature for 3 days, and aliquoted at 100 μl each into tubes. After evaporation of hexafluoroisopropanol (HFIP) using a speed vacuum, 10 μl of an anhydrous DMSO (dimethyl sulfoxide) solution was placed in one of the aliquoted tubes, so as to realize sufficient dissolution, after which 400 μl of phosphate buffer saline (PBS) was added thereto, thus preparing a 25 μM beta-amyloid 1-42 solution.
ICR mice (The Jackson Laboratory, Bar Harbor, Me., USA) were divided into a normal group, a control group and four test groups. The respective test groups were intraperitoneally administered with the peptide of each of Example 1, Example 2, Comparative Example 1, and Comparative Example 2 in amounts of 25 mg/kg, and the control group was treated in the same manner as in the test group, with the exception that an excipient (10% DMSO in saline, 10 ml/kg) was used in lieu of the peptide. After 20 min, the control group and the test groups were intravenously (i.v.) injected through the tail vein with 400 μl of 25 μM beta-amyloid 1-42. Furthermore, the normal group was treated in the same manner as in the control group, with the exception that beta-amyloid 1-42 was not added. 10 min after the tail venous injection of beta-amyloid, about 50 μl of blood was collected from the infraorbital vein of each mouse using a sodium-heparinized capillary tube, after which the mouse was immediately subjected to euthanasia with carbon dioxide (CO2) gas and then the right hemisphere of the mouse was extracted and stored in liquid nitrogen. All the collected blood samples were centrifuged at 13,000 rpm for 10 min. The supernatant was isolated, placed in the prepared tube, and diluted at 1/4000, followed by ELISA (Enzyme-Linked ImmunoSorbent Assay or Enzyme-Linked ImmunoSpecific Assay) ofbeta-amyloid 1-42.
The frozen right hemisphere was added with 3 ml of a RIPA buffer (Radio Immuno Precipitation Assay buffer), sonicated, and centrifuged, after which the supernatant was isolated, followed by protein concentration measurement through BCA assay (bicinchoninic acid assay). BCA assay was performed in accordance with the kit (Thermo Scientific, Waltham, Mass., USA, Cat. No. 23227) protocol. The beta-amyloid 1-42 concentration in the brain was measured through ELISA in a RIPA-homogenate. ELISA was performed in accordance with the kit (IBL International, Hamburg, Germany, Code No. 27711) protocol.

beta-amyloid 1-42 [2] = test: Biomarker change in animal models: brain beta-amyloid 1-42 by ELISA; type: in vivo, DTg mouse; settings: DTg mice, 50 mg/kg intraperitoneally for 13 weeks; control 76.03±25.63
Protocol: (§1) In order to evaluate the effect of changing the biomarker using animal models in which an administration period of a total of 13 weeks was terminated in the <Evaluation of learning and memory recovery effects using animal models> test, the following test was conducted. After termination of intraperitoneal administration for a total of 13 weeks, the animal models were subjected to euthanasia using carbon dioxide (CO2) and the brain thereof was immediately extracted. Upon brain extraction, the entire brain was taken out so as not to be scratched, and was then lightly washed with saline solution. […]
(§2) The left hemisphere stored in a deep freezer at −80° C. was placed in a RIPA buffer (Radio Immuno Precipitation Assay buffer) and sonicated, thus preparing a brain homogenate. Thereafter, the amount of protein was measured through BCA assay (BicinChoninic Acid assay). […] The biomarker expression level was measured through ELISA, and ELISA assay was performed in accordance with the kit{Amyloid-beta(1-42) Elisa kit: IBL International, Hamburg, Germany (27711), TNF-alpha ELISA kit: Koma Biotech, Seoul, Korea (K0331186P), GFAP Elisa kit: Millipore Corporation, Billerica, Mass., USA (NS830)} protocol. […]
(§3) The biomarkers measured through ELISA were beta-amyloid 1-42, TNF-alpha, and GFAP (glial fibrillary acidic protein). […]

[3] = system: double transgenic mouse (DTg mouse) models having induced human Alzheimer's disease; test: Learning and memory recovery, Y-maze test in Alzheimer's model mice; type: in vivo; settings: 50 mg/kg intraperitoneally once a day, 5 times a week, test 10 weeks after administration, control 49.44±3.88%, P<0.01
From the text: The learning and memory recovery effects of the peptide of Example 1 were experimentally verified. Specifically, in order to evaluate the effect of the peptide of Example 1 on inhibiting learning and memory reduction, which are symptoms of Alzheimer's disease, 30-week-old double transgenic mouse (DTg mouse, Jackson Laboratory, USA) models having induced human Alzheimer's disease, obtained in a manner in which a human-derived gene of beta-amyloid precursor protein APP (APPsw; amyloid mutation) having Swedish mutation and a human-derived gene in the form of exon-9 deletion of a gamma secretase PSI gene were over-expressed in the brain through genetic manipulation, were used for tests.
The test animals were acclimated in an animal room after purchase in accordance with the Guidelines for Experimental Animal Tests and treated in accordance with the approved Animal Experimental Plan. The test conditions were maintained at a temperature of 23±1° C. and a humidity of 50±5%, and the light/dark cycle was 12 hr ([…]). During the testing, animals were free to consume water and feed. […]
The Y-maze test is an experiment to observe the voluntary tendency of an animal to search a new environment using short-term memory ability. […] Spontaneous alternation (%) was calculated using the following equation. […]

TNF-alpha = test: Biomarker change in animal models: brain TNF-alpha by ELISA; type: in vivo, DTg mouse; settings: DTg mice, 50 mg/kg intraperitoneally for 13 weeks; control 1109.91±285.30; p<0.05
Protocol: as §1, §2, §3

[4] = system: GFAP (glial fibrillary acidic protein); test: Biomarker change in animal models: brain GFAP by ELISA; type: in vivo, DTg mouse; settings: DTg mice, 50 mg/kg intraperitoneally for 13 weeks; control 70.61±26.82
Protocol: as §1, §2, §3

beta-amyloid 1-42 [5] = test: Inhibition of entry of blood beta-amyloid 1-42 into brain I (ELISA of brain and plasma); type: in vivo; settings: ICR mice; for beta-amyloid 1-42 concentration in the brain: 20 min before i.v. 400 μl of 25 μM beta-amyloid 1-42, brain taken 10 min after
Protocol: The inhibition of entry of blood beta-amyloid 1-42 into the brain by the peptide of Example 1 was experimentally verified. Specifically, in order to evaluate the effect of the peptide of Example 1 on inhibiting the entry of beta-amyloid 1-42 into the brain, which is the cause of Alzheimer's disease, 1 mg of beta-amyloid 1-42 (American Peptide Company, Sunnyvale, Calif., USA) was added with 2 ml of hexafluoroisopropanol (HFIP), allowed to stand at room temperature for 3 days, and aliquoted at 100 μl each into tubes. After evaporation of hexafluoroisopropanol (HFIP) using a speed vacuum, 10 μl of an anhydrous DMSO (dimethyl sulfoxide) solution was placed in one of the aliquoted tubes, so as to realize sufficient dissolution, after which 400 μl of phosphate buffer saline (PBS) was added thereto, thus preparing a 25 μM beta-amyloid 1-42 solution.
ICR mice (The Jackson Laboratory, Bar Harbor, Me., USA) were divided into a normal group, a control group and two test groups. The respective test groups were intraperitoneally administered with the peptide of Example 1 in amounts of 2.5 mg/kg and 25 mg/kg, and the control group was treated in the same manner as in the test group, with the exception that an excipient (10% DMSO in saline, 10 ml/kg) was used in lieu of the peptide of Example 1. After 20 min, the control group and the test groups were intravenously (i.v.) injected through the tail vein with 400 μl of 25 μM beta-amyloid 1-42. Furthermore, the normal group was treated in the same manner as in the control group, with the exception that beta-amyloid 1-42 was not added. […]
The frozen right hemisphere was added with 3 ml of a RIPA buffer (Radio Immuno Precipitation Assay buffer), sonicated, and centrifuged, after which the supernatant was isolated, followed by protein concentration measurement through BCA assay (bicinchoninic acid assay). […] The beta-amyloid 1-42 concentration in the brain was measured through ELISA in a RIPA-homogenate. […]

Molecule	entry of beta-amyloid into the brain (result in words) (beta-amyloid 1-42 [1])	Beta-amyloid 1-42 concentration in brain (beta-amyloid 1-42 [1])	beta-amyloid 1-42 concentration in brain homogenate (beta-amyloid 1-42 [2])	spontaneous alternation (Y-maze test) [3]	TNF-alpha concentration in brain homogenate (TNF-alpha)	GFAP concentration in brain homogenate [4]	beta-amyloid 1-42 concentration in the brain (beta-amyloid 1-42 [5]; peptide 2.5 mg/kg intraperitoneally)	beta-amyloid 1-42 concentration in the brain (beta-amyloid 1-42 [5]; peptide 25 mg/kg intraperitoneally)	plasma beta-amyloid levels versus control group (beta-amyloid 1-42 [5]; peptide 2.5 and 25 mg/kg intraperitoneally, blood 10 min after i.v. beta-amyloid 1-42)
N[C@@H](CC(=O)O)C(=O)NCC(=O)N[C@@H](CCC(=O)O)C(=O)N[C@@H](Cc1ccccc1)C(=O)O [Example 2, DGEF] (H-DGEF-OH; N-terminus and C-terminus assumed)	effectively inhibited	48.8 ± 14.7 pg/mg protein							
DGEFF [Example 1, DGEFF]		54.8 ± 8.0 pg/mg protein	57.56±28.47 ng/mg protein	63.22±2.56%	798.99±172.90 pg/mg protein	47.63±24.92 ng/mg protein	195.5 ± 5.6 pg/mg	187.8 ± 2.4 pg/mg	not greatly different
VKMDAEFR [Comparative Example 2]	did not inhibit	87.6 ± 14.9 pg/mg protein							
DAEF [Comparative Example 1]	did not inhibit	69.5 ± 6.1 pg/mg protein							
